Ten molecules from ChEMBL document CHEMBL1201862, “PubChem BioAssay data set” (2004) can be followed below.

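Grown in 96-well plates, cells were treated for 48 hours with each compound at five concentrations. Insufficient inhibition: endpoint recorded as highest concentration tested. Abbreviation: GI50, concentration required for 50% inhibition of growth.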 Activity calls are given as the source filed them. Rule as the data show it: active = GI50 up to about 1.1 µM and inactive = higher.

Holding throughout (test): NCI-60 cell line screen, 48 h
In assay [1] the test system is A498.
Assay [2] deals with A549.
For assay [3], the system named is CAKI-1.
For assay [4], the system named is DU-145.
Assay [5] deals with HCC 2998.
Assay [6] has as its system HL-60.
In assay [7] the test system is HOP-62.
For assay [8], the system named is M14.
Assay [9] has as its system MCF7.
Assay [10] concerns MDA-MB-435.
For assay [11], the system named is NCI-H23.
Assay [12] relates to RPMI-8226.
Assay [13] has as its system RXF 393.
For assay [14], the system named is SF-268.
Assay [15] has as its system SF-539.
The test system of assay [16] is SK-MEL-28.
Assay [17] concerns SK-MEL-5.
In assay [18] the test system is SNB-19.
The subject of assay [19] is SW-620.
Assay [20] has as its system UACC-62.

Turning to `Cc1ccccc1OC(C)C(=O)NN1C(=O)CC(=O)N(c2ccccc2)C1=S` (stereo unspecified), the GI50 in assay [1] was 36 µM (inactive); in [2], 29.1 µM (inactive); in assay [3] it was > 100 µM (inactive); in [4] it was 51.1 µM (inactive); in assay [5] it was 70.8 µM (inactive); in assay [6] it was 10.4 µM (inactive). Moreover, the GI50 in [7] is 69.2 µM (inactive); in [8] it was 52 µM (inactive); in assay [9], 42.3 µM (inactive); in assay [10] it was 73.1 µM (inactive); in assay [11], 88.1 µM (inactive); in assay [12] it was 43.3 µM (inactive). Moreover, the GI50 in [13] is 61.4 µM (inactive); in [14], 76.6 µM (inactive); in assay [15], > 100 µM (inactive); in assay [16] it was > 100 µM (inactive); in [17], 60.3 µM (inactive); in [18], 24 µM (inactive). Further, the GI50 was 78.3 µM (inactive) in [19] and 54.1 µM (inactive) in [20].

Regarding `N#Cc1c(O)nc2nn3c4ccc5ccccc5c4nnc3c2c1-c1ccc(Cl)cc1`, the GI50 in [1] is 1.58 µM (inactive); in [2], 4.57 µM (inactive); in assay [3], 2.29 µM (inactive); in [4], 1.95 µM (inactive); in [5], 2.68 µM (inactive); in [6], 0.421 µM (active). The GI50 in [7] was 3.16 µM (inactive); in assay [8] it was 2.38 µM (inactive); in assay [9] it was 1.75 µM (inactive); in [10], 3.3 µM (inactive); in assay [11] it was 1.97 µM (inactive); in assay [12], 2.9 µM (inactive). In addition, the GI50 in assay [13] was 2.01 µM (inactive); in assay [14], 2.51 µM (inactive); in assay [15], 1.96 µM (inactive); in [16] it was 2.24 µM (inactive); in assay [17] it was 1.92 µM (inactive); in assay [18], 3.13 µM (inactive). The GI50 in [19] is 2.03 µM (inactive); in assay [20], 1.49 µM (inactive).

For `CC1CCCCCC(=O)c2c(O)cc(O)cc2CC(=O)O1` (stereo unspecified) [CURVULARIN], the GI50 was > 100 µM (inactive) in [1]; > 100 µM (inactive) in assay [2]; > 100 µM (inactive) in [3]; > 100 µM (inactive) in [4]; > 100 µM (inactive) in [5]; 54.3 µM (inactive) in [6]. For the same molecule, the GI50 in assay [7] is > 100 µM (inactive); in [8], > 100 µM (inactive); in [9], > 100 µM (inactive); in assay [10] it was > 100 µM (inactive); in assay [11], 48.9 µM (inactive); in assay [12], 67.8 µM (inactive). The GI50 in [13], in assay [14], in [15], in assay [16], in [17] and in [18] was > 100 µM (inactive) throughout. Besides, the GI50 in assay [19] and in assay [20] was > 100 µM (inactive) in each case.

As for `CC(=O)O[C@H](C[C@@H](C)[C@H]1C(=O)[C@H](O)[C@@]2(C)C3CC[C@H]4C(C)(C)[C@@H](OC5OCC(O)C(O)C5O)CC[C@@]45C[C@@]35CC[C@]12C)[C@@H]1OC1(C)C` (stereo partly specified), the GI50 in assay [1] was 15.9 µM (inactive); in assay [2] it was 27.9 µM (inactive); in [3] it was 16.8 µM (inactive); in assay [4], 19 µM (inactive); in [5], 16.3 µM (inactive); in [6] it was 2.21 µM (inactive). The GI50 in [7] was 12.1 µM (inactive); in assay [8], 31.1 µM (inactive); in assay [9], 17.9 µM (inactive); in assay [10], 17.7 µM (inactive); in [11] it was 23.9 µM (inactive); in [12], 12.4 µM (inactive). The GI50 in assay [13] was 16.8 µM (inactive); in assay [14] it was 20.7 µM (inactive); in assay [15], 16.3 µM (inactive); in [16] it was 20.3 µM (inactive); in [17] it was 16.1 µM (inactive); in [18], 20.1 µM (inactive). The GI50 in assay [19] was 32.4 µM (inactive); in assay [20], 14.1 µM (inactive).

Consider `COc1ccc(/C=C/C(=N/NC(=O)N/N=C(/C=C/c2ccc(OC)cc2)C(C)C)C(C)C)cc1`, for which the GI50 in [1] was > 100 µM (inactive); in assay [2] it was 45.3 µM (inactive); in assay [3] it was > 100 µM (inactive); in [4], 80.2 µM (inactive); in assay [5], 38.7 µM (inactive); in assay [6], 33 µM (inactive). The GI50 in assay [7] is 22 µM (inactive); in assay [8], 44.4 µM (inactive); in [9], 64.6 µM (inactive); in assay [10] it was > 100 µM (inactive); in assay [11], > 100 µM (inactive); in assay [12], 33.2 µM (inactive). Moreover, the GI50 is > 100 µM (inactive) in assay [13]; > 100 µM (inactive) in [14]; > 100 µM (inactive) in [15]; > 100 µM (inactive) in [16]; 95.9 µM (inactive) in assay [17]; > 100 µM (inactive) in assay [18]. Also, the GI50 in assay [19] and in assay [20] was > 100 µM (inactive) in each case.

For `O=C(O)c1c2c(cc3c1CC(Cc1ccccc1)C3=O)CCC2` (stereo unspecified), the GI50 is > 100 µM (inactive) in assay [1]; 19.5 µM (inactive) in assay [2]; > 100 µM (inactive) in assay [3]; > 100 µM (inactive) in [4]; > 100 µM (inactive) in [5]; 22.4 µM (inactive) in assay [6]. Further, the GI50 in assay [7] is > 100 µM (inactive); in assay [8], > 100 µM (inactive); in assay [9], > 100 µM (inactive); in [10] it was > 100 µM (inactive); in assay [11], > 100 µM (inactive); in assay [12], 39.7 µM (inactive). The GI50 in assay [13] is > 100 µM (inactive); in assay [14], > 100 µM (inactive); in assay [15], 76.6 µM (inactive); in assay [16], > 100 µM (inactive); in assay [17], > 100 µM (inactive); in assay [18], > 100 µM (inactive). Also, the GI50 in assay [19] and in assay [20] was > 100 µM (inactive) each time.

With `C[C@@H]1CCC2[C@@H](C)[C@H](O[C@H]3O[C@@H]4O[C@@]5(C)CCC6[C@H](C)CCC([C@H]3C)[C@]64OO5)O[C@@H]3O[C@@]4(C)CCC1[C@@]23OO4` (stereo partly specified), the GI50 in assay [1] is 4.15 µM (inactive); in assay [2] it was 0.0914 µM (active); in assay [3], 0.27 µM (active); in [4], 1.93 µM (inactive); in [5], 0.813 µM (active); in assay [6] it was 0.0243 µM (active). Moreover, the GI50 in assay [7] was 4.04 µM (inactive); in assay [8] it was 0.475 µM (active); in assay [9], 0.0925 µM (active); in [10] it was 0.06 µM (active); in [11], 0.0415 µM (active); in assay [12], 0.0127 µM (active). Also, the GI50 in [13] is 1.3 µM (inactive); in assay [14] it was 3.44 µM (inactive); in assay [15], 0.264 µM (active); in [16] it was 5.69 µM (inactive); in assay [17], 0.09 µM (active); in assay [18] it was 3.17 µM (inactive). Moreover, the GI50 in [19] is 0.0418 µM (active); in assay [20], 0.0805 µM (active).

Take `C/C=C1/CC(C)C(C)(O)C(=O)OCC2C(O)CN3CCC(OC1=O)C23` (stereo unspecified): the GI50 in assay [1], in [2], in assay [3], in [4], in assay [5] and in assay [6] was > 100 µM (inactive) each time. For the same molecule, the GI50 in assay [7], in assay [8], in assay [9], in assay [10], in assay [11] and in assay [12] was > 100 µM (inactive) each time. Further, the GI50 in assay [13], in assay [14], in assay [15], in assay [17], in [18] and in [19] was > 100 µM (inactive) in each case. In [20], the GI50 was > 100 µM (inactive).

For `CC1=NN(c2nc(N)nc(CS(C)(=O)=O)n2)C(C)(C)C1`, the GI50 in assay [1], in assay [3], in [4], in assay [5], in [6] and in [7] was > 100 µM (inactive) in each case. The GI50 in assay [8], in [9], in assay [10], in [11], in [12] and in [13] was > 100 µM (inactive) throughout. Besides, the GI50 in assay [14], in [15], in assay [16], in assay [17], in assay [18] and in assay [19] was > 100 µM (inactive) throughout. In assay [20], the GI50 was > 100 µM (inactive).

As to `C=C1CCC2CC1[C@@H](C(=O)c1c[nH]c3ccccc13)NC2(C)C` (stereo partly specified), the GI50 in assay [1] was > 37.5 µM (inactive); in assay [2] it was > 37.5 µM (inactive); in [3] it was 8.51 µM (inactive); in assay [4], > 37.5 µM (inactive); in [5], 10.7 µM (inactive); in assay [6], 34.8 µM (inactive). Moreover, the GI50 in assay [7], in [9], in assay [10], in [11], in assay [12] and in assay [13] was > 37.5 µM (inactive) throughout. Also, the GI50 was > 37.5 µM (inactive) in [14]; > 37.5 µM (inactive) in [15]; > 37.5 µM (inactive) in assay [16]; > 37.5 µM (inactive) in assay [17]; > 37.5 µM (inactive) in assay [19]; 18.7 µM (inactive) in [20].
